One block for each molecule: values may come before it. The source made the active and inactive calls. The rule behind the calls is not given here.
How the values were obtained:
MDA-MB-231 = assay: Cytotoxicity against human MDA-MB-231 cells after 24 hrs by MTT assay; type: functional, cell-based; conditions: MDA-MB-231, 24 h
MCF7 = assay: Cytotoxicity against human MCF7 cells after 24 hrs by MTT assay; type: functional, cell-based; conditions: MCF7, 24 h
SK-BR-3 = assay: Cytotoxicity against human SKBR3 cells after 24 hrs by MTT assay; type: functional, cell-based; conditions: SK-BR-3, 24 h
HCT-116 = assay: Cytotoxicity against human HCT116 cells after 24 hrs by MTT assay; type: functional, cell-based; conditions: HCT-116, 24 h
A549 [1] = assay: Cytotoxicity against human A549 cells after 24 hrs by MTT assay; type: functional, cell-based; conditions: A549, 24 h
HEK-293T = assay: Cytotoxicity against human HEK293T cells after 24 hrs by MTT assay; type: cell-based
A549 [2] = assay: Cell cycle arrest in human A549 cells assessed as accumulation of cells at sub G1 phase at 10 uM after 24 hrs by propidium iodide staining-based flow cytometric analysis (reference value: 0.52%); type: functional
A549 [3] = assay: Cell cycle arrest in human A549 cells assessed as accumulation of cells at G0/G1 phase at 10 uM after 24 hrs by propidium iodide staining-based flow cytometric analysis (reference value: 71.1%); type: functional
A549 [4] = assay: Cell cycle arrest in human A549 cells assessed as accumulation of cells at S phase at 10 uM after 24 hrs by propidium iodide staining-based flow cytometric analysis (reference value: 6.22%); type: functional
A549 [5] = assay: Cell cycle arrest in human A549 cells assessed as accumulation of cells at G2/M phase at 10 uM after 24 hrs by propidium iodide staining-based flow cytometric analysis (reference value: 21.7%); type: functional
A549 [6] = assay: Induction of apoptosis in human A549 cells assessed as increase in BAX expression at 10 uM after 24 hrs by Western blot analysis; type: functional, cell-based
A549 [7] = assay: Induction of apoptosis in human A549 cells assessed as decrease in Bcl-2 expression at 10 uM after 24 hrs by Western blot analysis; type: functional, cell-based
A549 [8] = assay: Induction of apoptosis in human A549 cells assessed as increase in TP53 expression at 10 uM after 24 hrs by Western blot analysis; type: functional, cell-based
A549 [9] = assay: Downregulation of EGFR expression in human A549 cells at 10 uM after 24 hrs by Hoechst staining-based fluorescence assay; type: functional, cell-based
A549 [10] = assay: Downregulation of AKT expression in human A549 cells at 10 uM after 24 hrs by Hoechst staining-based immunocytochemistry; type: functional, cell-based
A549 [11] = assay: Inhibition of 3-D spheroids cell growth in human A549 cells at 10 uM after 25 days by crystal violet staining-based immunocytochemistry; type: functional
Tubulin (Homo sapiens) = Tubulin (Homo sapiens) (UniProt P68371+Q9H4B7+P0DPH7+P68366+Q13509+Q71U36+P04350+Q3ZCM7+P07437+P68363+Q9BQE3+Q6PEY2+Q13885+Q9BVA1+Q9BUF5); assay: Inhibition of tubulin network in human A549 cells at 10 uM after 24 hrs by Hoechst 33342 staining-based confocal microscopic analysis; type: cell-based

Structure (SMILES): COc1ccc2c(c1)-c1n[nH]c(/C=C/C(=O)c3ccc(N)cc3)c1C2
IC50 (MDA-MB-231): 11.9 µM
IC50 (MCF7): 11.2 µM
IC50 (SK-BR-3): 12.5 µM
IC50 (HCT-116): 19.8 µM
IC50 (A549 [1]): 11.3 µM
IC50 (HEK-293T): 19 µM

Structure (SMILES): COc1ccc(C(=O)/C=C/c2[nH]nc3c2Cc2ccccc2-3)cc1OC
IC50 (MDA-MB-231): 6.82 µM
IC50 (MCF7): 10.1 µM
IC50 (SK-BR-3): 11.4 µM
IC50 (HCT-116): 20.5 µM
IC50 (A549 [1]): 13.4 µM
IC50 (HEK-293T): 38 µM

inhibition (Tubulin (Homo sapiens)): Active
Structure (SMILES): COc1ccc2c(c1)-c1n[nH]c(/C=C/C(=O)c3cc(OC)c(OC)c(OC)c3)c1C2
IC50 (MDA-MB-231): 5.89 µM
IC50 (MCF7): 6.55 µM
IC50 (SK-BR-3): 4.79 µM
IC50 (HCT-116): 6.85 µM
IC50 (A549 [1]): 3.82 µM
IC50 (HEK-293T): 32 µM
Activity (A549 [2]): 2.36%
Activity (A549 [3]): 59.5%
Activity (A549 [4]): 7.99%
Activity (A549 [5]): 29.6%
Activity (A549 [6]): Active
Activity (A549 [7]): Active
Activity (A549 [8]): Active
Activity (A549 [9]): Active
Activity (A549 [10]): Active
growth inhibition (GI) (A549 [11]): Active

Structure (SMILES): Nc1ccc(C(=O)/C=C/c2[nH]nc3c2Cc2ccccc2-3)cc1
IC50 (MDA-MB-231): 5.66 µM
IC50 (MCF7): 8.35 µM
IC50 (SK-BR-3): 7.47 µM
IC50 (HCT-116): 14.9 µM
IC50 (A549 [1]): 11.5 µM
IC50 (HEK-293T): 35 µM

Structure (SMILES): COc1ccc(C(=O)/C=C/c2[nH]nc3c2Cc2ccc(OC)cc2-3)cc1
IC50 (MDA-MB-231): 6.21 µM
IC50 (MCF7): 9.18 µM
IC50 (SK-BR-3): 10.2 µM
IC50 (HCT-116): 13.2 µM
IC50 (A549 [1]): 13.3 µM
IC50 (HEK-293T): 45 µM

inhibition (Tubulin (Homo sapiens)): Active
Structure (SMILES): COc1cc2c(cc1OC)-c1n[nH]c(/C=C/C(=O)c3cc(OC)c(OC)c(OC)c3)c1C2
IC50 (MDA-MB-231): 6.03 µM
IC50 (MCF7): 6.83 µM
IC50 (SK-BR-3): 4.97 µM
IC50 (HCT-116): 5.9 µM
IC50 (A549 [1]): 4.33 µM
IC50 (HEK-293T): 29 µM
Activity (A549 [2]): 5.16%
Activity (A549 [3]): 51.1%
Activity (A549 [4]): 9.36%
Activity (A549 [5]): 33.7%
Activity (A549 [6]): Active
Activity (A549 [7]): Active
Activity (A549 [8]): Active
Activity (A549 [9]): Active
Activity (A549 [10]): Active
growth inhibition (GI) (A549 [11]): Active

Structure (SMILES): COc1ccc2c(c1)-c1n[nH]c(/C=C/C(=O)c3ccc4c(c3)OCO4)c1C2
IC50 (MDA-MB-231): 9.31 µM
IC50 (MCF7): 9.99 µM
IC50 (SK-BR-3): 12.5 µM
IC50 (HCT-116): 13.7 µM
IC50 (A549 [1]): 12.4 µM
IC50 (HEK-293T): 54 µM

Structure (SMILES): COc1ccc2c(c1)-c1n[nH]c(/C=C/C(=O)c3ccc(OC)c(OC)c3)c1C2
IC50 (MDA-MB-231): 4.48 µM
IC50 (MCF7): 7.99 µM
IC50 (SK-BR-3): 9.22 µM
IC50 (HCT-116): 12.2 µM
IC50 (A549 [1]): 10.4 µM
IC50 (HEK-293T): 33 µM

Structure (SMILES): COc1cc2c(cc1OC)-c1n[nH]c(/C=C/C(=O)c3ccc4c(c3)OCO4)c1C2
IC50 (MDA-MB-231): 5.28 µM
IC50 (MCF7): 6.9 µM
IC50 (SK-BR-3): 8.12 µM
IC50 (HCT-116): 11.6 µM
IC50 (A549 [1]): 11.9 µM
IC50 (HEK-293T): 18 µM

Structure (SMILES): COc1cc2c(cc1OC)-c1n[nH]c(/C=C/C(=O)c3ccc(N)cc3)c1C2
IC50 (MDA-MB-231): 6.4 µM
IC50 (MCF7): 7.5 µM
IC50 (SK-BR-3): 9.23 µM
IC50 (HCT-116): 8.34 µM
IC50 (A549 [1]): 9.73 µM
IC50 (HEK-293T): 20 µM

Structure (SMILES): COc1ccc(C(=O)/C=C/c2[nH]nc3c2Cc2ccccc2-3)cc1
IC50 (MDA-MB-231): 10.1 µM
IC50 (MCF7): 11.5 µM
IC50 (SK-BR-3): 14.7 µM
IC50 (HCT-116): 10.8 µM
IC50 (A549 [1]): 14.3 µM
IC50 (HEK-293T): 21 µM

Structure (SMILES): C#Cc1cccc(Nc2ncnc3cc(OCCOC)c(OCCOC)cc23)c1 [ERLOTINIB]
IC50 (MDA-MB-231): 0.05 µM
IC50 (MCF7): 12.4 µM
IC50 (SK-BR-3): 3.98 µM
IC50 (HCT-116): 7.31 µM
IC50 (HEK-293T): 73 µM
Activity (A549 [2]): 1.71%
Activity (A549 [3]): 64.1%
Activity (A549 [4]): 7.72%
Activity (A549 [5]): 26%
Activity (A549 [6]): Active
Activity (A549 [7]): Active
Activity (A549 [8]): Active
Activity (A549 [9]): Active
Activity (A549 [10]): Active

inhibition (Tubulin (Homo sapiens)): Active
Structure (SMILES): COc1ccc(C(=O)/C=C/c2[nH]nc3c2Cc2cc(OC)c(OC)cc2-3)cc1OC
IC50 (MDA-MB-231): 3.82 µM
IC50 (MCF7): 6.94 µM
IC50 (SK-BR-3): 5.11 µM
IC50 (HCT-116): 6.66 µM
IC50 (A549 [1]): 5.21 µM
IC50 (HEK-293T): 46 µM
Activity (A549 [2]): 5.27%
Activity (A549 [3]): 45.9%
Activity (A549 [4]): 7.62%
Activity (A549 [5]): 40.6%
Activity (A549 [6]): Active
Activity (A549 [7]): Active
Activity (A549 [8]): Active
Activity (A549 [9]): Active
Activity (A549 [10]): Active
growth inhibition (GI) (A549 [11]): Active

Structure (SMILES): COc1ccc(C(=O)/C=C/c2[nH]nc3c2Cc2cc(OC)c(OC)cc2-3)cc1
IC50 (MDA-MB-231): 6.54 µM
IC50 (MCF7): 6.99 µM
IC50 (SK-BR-3): 8.52 µM
IC50 (HCT-116): 11.6 µM
IC50 (A549 [1]): 9.88 µM
IC50 (HEK-293T): 23 µM

Structure (SMILES): COc1cc(C(=O)/C=C/c2[nH]nc3c2Cc2ccccc2-3)cc(OC)c1OC
IC50 (MDA-MB-231): 5.52 µM
IC50 (MCF7): 8.49 µM
IC50 (SK-BR-3): 8.64 µM
IC50 (HCT-116): 12.8 µM
IC50 (A549 [1]): 10.9 µM
IC50 (HEK-293T): 25 µM

Structure (SMILES): O=C(/C=C/c1[nH]nc2c1Cc1ccccc1-2)c1ccc2c(c1)OCO2
IC50 (MDA-MB-231): 14.5 µM
IC50 (MCF7): 12.4 µM
IC50 (SK-BR-3): 17.3 µM
IC50 (HCT-116): 13.8 µM
IC50 (A549 [1]): 16 µM
IC50 (HEK-293T): 17 µM

Reference: ChEMBL document CHEMBL4411285, “Design, synthesis, in silico pharmacokinetics prediction and biological evaluation of 1,4-dihydroindeno[1,2-c]pyrazole chalcone as EGFR /Akt pathway inhibitors” (Eur J Med Chem, 2019)
